The text below walks through data of paper PMC5910208 (ACS chemical biology, 2018).

The target of data set [1] is T1, LaPhzM (Lysobacter antibioticus, UniProt A0A172J1V3).
T1 sequence (A0A172J1V3 1-341): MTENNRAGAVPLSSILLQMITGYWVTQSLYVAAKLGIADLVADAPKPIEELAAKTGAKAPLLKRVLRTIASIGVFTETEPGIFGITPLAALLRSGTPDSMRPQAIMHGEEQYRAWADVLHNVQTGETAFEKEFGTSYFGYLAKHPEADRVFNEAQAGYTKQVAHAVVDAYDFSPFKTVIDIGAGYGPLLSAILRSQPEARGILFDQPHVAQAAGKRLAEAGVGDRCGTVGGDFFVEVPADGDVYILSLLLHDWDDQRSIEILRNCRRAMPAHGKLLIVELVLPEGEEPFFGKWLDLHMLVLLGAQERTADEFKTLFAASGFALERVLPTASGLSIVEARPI
Nature of the data set: X-ray crystal structure, […] Å. It is filed as binding. The conditions noted are these: crystallised with SAM added; SAH found in cofactor site.

Data set [2] deals with T2, LaPhzNO1 (Lysobacter antibioticus, UniProt A0A172J1R7).
T2 sequence (A0A172J1R7 1-541): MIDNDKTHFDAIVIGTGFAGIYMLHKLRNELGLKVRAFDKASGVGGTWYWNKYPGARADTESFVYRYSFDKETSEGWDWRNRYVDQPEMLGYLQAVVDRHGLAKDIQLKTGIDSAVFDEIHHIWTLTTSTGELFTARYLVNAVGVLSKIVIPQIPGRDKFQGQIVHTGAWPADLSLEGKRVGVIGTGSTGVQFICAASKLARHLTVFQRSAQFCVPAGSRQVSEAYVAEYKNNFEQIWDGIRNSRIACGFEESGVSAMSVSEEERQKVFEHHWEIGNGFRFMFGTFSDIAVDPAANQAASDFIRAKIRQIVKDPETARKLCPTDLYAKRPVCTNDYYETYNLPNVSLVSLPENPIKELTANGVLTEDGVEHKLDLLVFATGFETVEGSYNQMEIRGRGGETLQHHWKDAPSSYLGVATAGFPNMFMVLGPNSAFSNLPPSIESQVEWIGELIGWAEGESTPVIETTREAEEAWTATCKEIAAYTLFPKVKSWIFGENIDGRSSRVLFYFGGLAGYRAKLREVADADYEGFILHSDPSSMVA
Nature of the data set: HPLC / LC-MS product analysis, coupled with LaPhzS making DHP from PDC. It is filed as biochemical. The conditions noted are these: NADPH, FAD; phosphate 100 mM pH 7.0, RT.

Substrate in data set [3]: COc1cccc2c1nc1cccc(O)c1[n+]2[O-]
Nature of the data set: initial velocity by HPLC of SAH formed, Michaelis-Menten fit. The conditions noted are these: co-substrate SAM, Tris 50 mM, pH 7.8, RT. It counts as biochemical, Lysobacter antibioticus.

In the case of `Nc1ncnc2c1ncn2[C@@H]1O[C@H](CSCC[C@H](N)C(=O)O)[C@@H](O)[C@H]1O` [S-adenosyl-L-homocysteine], the “X-ray crystal structure, 1.42 Å” value in data set [1] was “electron density around the cofactor binding site clearly indicates an S-adenosyl-L-homocysteine (SAH), instead of a SAM”. For the molecule `Oc1cccc2nc3c(O)cccc3nc12` [compound 7, 1,6-dihydroxyphenazine], in data set [2], the “HPLC / LC-MS product analysis, coupled with LaPhzS making DHP from PDC” value was “When the second enzyme LaPhzNO1 and another cofactor NADPH were added in the reaction mixture”.

B1: LaPhzM (Lysobacter antibioticus) (protein)
chain: MTENNRAGAVPLSSILLQMITGYWVTQSLYVAAKLGIADLVADAPKPIEELAAKTGAKAPLLKRVLRTIASIGVFTETEPGIFGITPLAALLRSGTPDSMRPQAIMHGEEQYRAWADVLHNVQTGETAFEKEFGTSYFGYLAKHPEADRVFNEAQAGYTKQVAHAVVDAYDFSPFKTVIDIGAGYGPLLSAILRSQPEARGILFDQPHVAQAAGKRLAEAGVGDRCGTVGGDFFVEVPADGDVYILSLLLHDWDDQRSIEILRNCRRAMPAHGKLLIVELVLPEGEEPFFGKWLDLHMLVLLGAQERTADEFKTLFAASGFALERVLPTASGLSIVEARPI
Consider B1, for which, in data set [3], the Km (in general, the concentration of substrate that gives half-maximal velocity) turned out to be 33.6 µM; the catalytic constant (kcat) – broadly, the number of substrate molecules converted per active site and unit of time at saturation – turned out to be 0.01 s⁻¹.
